Assay results: patent publication US20250388582A1, “NOVEL BICYCLIC HETEROARYL COMPOUND AND USE THEREOF” (ILDONG PHARMACEUTICAL CO., LTD., priority 2022, published 2025)

Target: T1, human GST-PIKFYVE (Homo sapiens, UniProt Q9Y2I7)
T1 construct: GST; purchased Carna biosciences 11-118
Experiment: ADP-Glo kinase assay, enzyme inhibition activity against human PIKFYVE (Carna biosciences)
Assay type: biochemical
Conditions: inhibitory activity at final compound concentration 10 nM; 1 hour at room temperature
Experimental: The enzyme inhibition activity values for the compounds according to Examples against human PIKFYVE were calculated using the ADP-Glo™ kinase assay service of Carna biosciences, Inc. The enzyme activity evaluation method provided by Carna biosciences Inc., is shown below.
Enzyme inhibition activity was evaluated by reacting the compounds according to Examples with human GST-PIKFYVE (11-118, Carna biosciences), which was purified using glutathione Sepharose chromatography. The reaction buffer used was composed of 50 mmol/L MOPS, 1 mmol/L DTT, and pH 7.2, and all reactions of the test distilled water were performed in the buffer.
Compounds were prepared as solutions in 100% DMSO as 100× stocks and adjusted to have a final sample concentration of 10 nM.
The substrate-enzyme reaction for PIKFYVE was performed by mixing 5 μL human GST-PIKFYVE, 5 μL compounds according to Examples, 5 μL enzyme substrate, and 5 μL purified ATP and reacting for 1 hour at room temperature. After the substrate-enzyme reaction, 20 μL ADP-Glo™ Reagent was added and reacted at room temperature for 40 minutes, then 40 μL Kinase Detection Reagent was added and reacted at room temperature for 40 minutes.
After completion of the reaction, the degree of enzyme activity inhibition was measured by luminescence. The fluorescence of the enzyme activity in the solvent control group […] was set to 100%, and the fluorescence of the enzyme activity in the solvent control group without compound treatment was set to 0%. The inhibitory activity of each compound according to Examples was calculated based on these values.

T1 sequence (Q9Y2I7 whole entry): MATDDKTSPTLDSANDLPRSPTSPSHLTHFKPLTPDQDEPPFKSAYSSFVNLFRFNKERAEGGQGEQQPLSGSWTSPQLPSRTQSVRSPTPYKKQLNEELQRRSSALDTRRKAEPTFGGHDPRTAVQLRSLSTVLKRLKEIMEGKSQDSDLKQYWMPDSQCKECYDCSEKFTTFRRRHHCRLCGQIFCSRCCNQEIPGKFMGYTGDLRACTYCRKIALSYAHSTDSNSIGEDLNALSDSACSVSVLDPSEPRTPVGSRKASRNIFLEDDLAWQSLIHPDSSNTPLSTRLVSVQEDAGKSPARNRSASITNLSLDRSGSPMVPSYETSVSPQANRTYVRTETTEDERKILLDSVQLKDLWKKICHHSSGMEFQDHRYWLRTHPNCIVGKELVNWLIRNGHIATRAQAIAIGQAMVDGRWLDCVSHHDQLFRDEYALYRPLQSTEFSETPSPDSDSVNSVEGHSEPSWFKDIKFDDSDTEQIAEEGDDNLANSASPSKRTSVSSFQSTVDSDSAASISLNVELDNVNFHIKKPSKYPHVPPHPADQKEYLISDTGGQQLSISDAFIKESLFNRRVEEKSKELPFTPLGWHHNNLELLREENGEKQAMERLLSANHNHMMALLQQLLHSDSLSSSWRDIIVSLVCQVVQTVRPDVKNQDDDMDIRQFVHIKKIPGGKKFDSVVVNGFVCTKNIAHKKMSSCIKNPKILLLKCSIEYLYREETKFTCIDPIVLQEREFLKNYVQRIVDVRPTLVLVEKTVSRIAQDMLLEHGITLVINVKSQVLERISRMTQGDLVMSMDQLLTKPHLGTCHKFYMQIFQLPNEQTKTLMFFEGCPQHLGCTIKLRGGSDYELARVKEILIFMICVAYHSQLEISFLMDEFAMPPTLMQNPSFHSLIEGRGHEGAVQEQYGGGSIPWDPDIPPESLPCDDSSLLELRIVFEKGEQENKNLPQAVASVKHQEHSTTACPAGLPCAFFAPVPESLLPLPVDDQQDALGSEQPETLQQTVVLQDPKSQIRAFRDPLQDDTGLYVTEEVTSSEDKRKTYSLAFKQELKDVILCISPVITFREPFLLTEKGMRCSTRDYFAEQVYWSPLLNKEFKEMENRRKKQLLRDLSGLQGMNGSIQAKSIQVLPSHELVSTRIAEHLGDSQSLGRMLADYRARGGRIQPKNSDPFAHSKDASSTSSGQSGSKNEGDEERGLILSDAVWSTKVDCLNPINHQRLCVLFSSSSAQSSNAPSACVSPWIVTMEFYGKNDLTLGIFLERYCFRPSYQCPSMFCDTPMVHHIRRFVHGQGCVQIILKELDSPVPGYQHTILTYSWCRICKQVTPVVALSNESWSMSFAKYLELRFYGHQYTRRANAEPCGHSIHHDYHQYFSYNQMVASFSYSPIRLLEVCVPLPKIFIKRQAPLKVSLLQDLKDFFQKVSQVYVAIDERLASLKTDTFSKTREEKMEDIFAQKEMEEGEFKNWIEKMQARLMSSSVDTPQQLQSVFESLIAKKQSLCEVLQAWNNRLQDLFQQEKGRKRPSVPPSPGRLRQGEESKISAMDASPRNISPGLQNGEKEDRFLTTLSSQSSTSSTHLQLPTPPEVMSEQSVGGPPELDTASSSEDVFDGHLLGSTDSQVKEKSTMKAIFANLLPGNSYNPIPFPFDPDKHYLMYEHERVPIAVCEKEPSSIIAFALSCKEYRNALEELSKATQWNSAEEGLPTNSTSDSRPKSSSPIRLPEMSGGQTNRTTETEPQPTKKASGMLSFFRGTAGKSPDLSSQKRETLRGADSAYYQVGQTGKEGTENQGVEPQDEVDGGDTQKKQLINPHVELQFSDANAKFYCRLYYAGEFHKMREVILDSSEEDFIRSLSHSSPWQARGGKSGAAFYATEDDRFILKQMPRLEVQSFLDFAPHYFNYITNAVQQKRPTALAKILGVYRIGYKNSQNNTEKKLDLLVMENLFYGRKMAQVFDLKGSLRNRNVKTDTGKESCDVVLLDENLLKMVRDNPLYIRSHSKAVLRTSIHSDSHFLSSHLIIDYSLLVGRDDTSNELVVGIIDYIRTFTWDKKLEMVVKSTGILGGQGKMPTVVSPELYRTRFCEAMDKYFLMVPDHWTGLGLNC

SMILES	ADP-Glo kinase assay (%, 10 nM) [%]
Cc1cccc(/C=N/Nc2nc(N3CCOCC3)nc3c(-c4ccccc4)cn(C)c23)c1 [Example 9, (E)-4-(5-methyl-4-(2-(3-methylbenzylidene)hydrazinyl)-7-phenyl-5H-pyrrolo[3,2-d]pyrimidin-2-yl)morpholine]	51.47
Cc1cccc(/C=N/Nc2nc(N3CCOCC3)nc3c2cnn3-c2cccnc2)c1 [Example 13, (E)-4-(4-(2-(3-methylbenzylidene)hydrazinyl)-1-(pyridin-3-yl)-1H-pyrazolo[3,4-d]pyrimidin-6-yl)morpholine]	51.68
Cc1cccc(/C=N/Nc2nc(N3CCOCC3)nc3c2cnn3-c2ccncc2)c1 [Example 16, (E)-4-(4-(2-(3-methylbenzylidene)hydrazinyl)-1-(pyridin-4-yl)-1H-pyrazolo[3,4-d]pyrimidin-6-yl)morpholine]	63.02
Cc1cccc(/C=N/Nc2nc(N3CCOCC3)nc3c2ncn3CC(=O)C2CC2)c1 [Example 19, (E)-1-cyclopropyl-2-(6-(2-(3-methylbenzylidene)hydrazinyl)-2-morpholino-9H-purin-9-yl)ethan-1-one]	58.67
Cc1cccc(/C=N/Nc2nc(N3CCOCC3)nc3c2ncn3CC(=O)N2CCc3ccccc32)c1 [Example 29, (E)-1-(indolin-1-yl)-2-(6-(2-(3-methylbenzylidene)hydrazinyl)-2-morpholino-9H-purin-9-yl)ethan-1-one]	55.15
COc1cccc(C(=O)Cn2cnc3c(N/N=C/c4cccc(C)c4)nc(N4CCOCC4)nc32)c1 [Example 38, (E)-1-(3-methoxyphenyl)-2-(6-(2-(3-methylbenzylidene)hydrazinyl)-2-morpholino-9H-purin-9-yl)ethan-1-one]	82.96
Cc1cccc(/C=N/Nc2nc(N3CCOCC3)nc3c2ncn3CC(=O)c2ccc(F)cc2)c1 [Example 47, (E)-1-(4-fluorophenyl)-2-(6-(2-(3-methylbenzylidene)hydrazinyl)-2-morpholino-9H-purin-9-yl)ethan-1-one]	60.82
Cc1cccc(/C=N/Nc2nc(N3CCOCC3)nc3c2ncn3CC(=O)c2cccc(OC(F)(F)F)c2)c1 [Example 50, (E)-2-(6-(2-(3-methylbenzylidene)hydrazinyl)-2-morpholino-9H-purin-9-yl)-1-(3-(trifluoromethoxy)phenyl)ethan-1-one]	54.37
Cc1cccc(/C=N/Nc2nc(N3CCOCC3)nc3c2ncn3CC(=O)c2ccc(N3CCOCC3)cc2N2CCOCC2)c1 [Example 51, (E)-1-(2,4-dimorpholinophenyl)-2-(6-(2-(3-methylbenzylidene)hydrazinyl)-2-morpholino-9H-purin-9-yl)ethan-1-one]	66.19
Cc1cccc(/C=N/Nc2nc(N3CCOCC3)nc3c2ncn3CC(=O)c2cnccn2)c1 [Example 54, (E)-2-(6-(2-(3-methylbenzylidene)hydrazinyl)-2-morpholino-9H-purin-9-yl)-1-(pyrazin-2-yl)ethan-1-one]	58.10
COc1cccc(-c2ccn(-c3nc(N4CCOCC4)nc4c3ncn4CC(=O)c3ccccn3)n2)c1 [Example 68, 2-(6-(3-(3-methoxyphenyl)-1H-pyrazol-1-yl)-2-morpholino-9H-purin-9-yl)-1-(pyridin-2-yl)ethan-1-one]	56.03
Cc1cccc(/C=N/Nc2nc(N3CCOCC3)nc3c2ncn3C2CN(C(=O)c3ccccc3)C2)c1 [Example 81, (E)-(3-(6-(2-(3-methylbenzylidene)hydrazinyl)-2-morpholino-9H-purin-9-yl)azetidin-1-yl)(phenyl)methanone]	60.34
Cc1cccc(/C=N/Nc2nc(N3CCOCC3)nc3c2ncn3C2CN(C(=O)c3cccnc3)C2)c1 [Example 82, (E)-3-(6-(2-(3-methylbenzylidene)hydrazinyl)-2-morpholino-9H-purin-9-yl)azetidin-1-yl (pyridin-3-yl)methanone]	60.95
COC(=O)N1CC(n2cnc3c(N/N=C/c4cccc(C)c4)nc(N4CCOCC4)nc32)C1 [Example 83, methyl (E)-3-(6-(2-(3-methylbenzylidene)hydrazinyl)-2-morpholino-9H-purin-9-yl)azetidine-1-carboxylate]	63.61
Cc1cccc(/C=N/Nc2nc(N3CCOCC3)nc3c2ncn3C2CCN(C(=O)c3ccccn3)CC2)c1 [Example 94, (E)-(4-(6-(2-(3-methylbenzylidene)hydrazinyl)-2-morpholino-9H-purin-9-yl)piperidin-1-yl)(pyridin-2-yl)methanone]	58.50
Cc1cccc(/C=N/Nc2nc(N3C[C@H]4C[C@@H]3CO4)nc3c2ncn3-c2cccnc2)c1 [Example 98, (1R,4R)-5-(6-(2-(3-methylbenzylidene)hydrazinyl)-9-(pyridin-3-yl)-9H-purin-2-yl)-oxa-5-azabicyclo[2.2.1]heptane]	91.62
Cc1cccc(/C=N/Nc2nc(N3CCOCC3)nc3c2ncn3-c2nccs2)c1 [Example 117, (E)-4-(6-(2-(3-methylbenzylidene)hydrazinyl)-9-(thiazol-2-yl)-9H-purin-2-yl)morpholine]	67.79
Cc1cccc(/C=N/Nc2nc(N3CCOCC3)nc3c2ncn3-c2cccc(C(F)(F)F)c2)c1 [Example 130, (E)-4-(6-(2-(3-methylbenzylidene)hydrazinyl)-9-(3-(trifluoromethyl)phenyl)-9H-purin-2-yl)morpholine]	69.14
COc1ccc(-n2cnc3c(-n4ccc(-c5cccc(C)c5)n4)nc(N4CCOCC4)nc32)cc1 [Example 134, 4-(9-(4-methoxyphenyl)-6-(3-(m-tolyl)-1H-pyrazol-1-yl)-9H-purin-2-yl)morpholine]	59.84
Cc1cccc(-c2ccn(-c3nc(N4CCOCC4)nc4c3ncn4-c3cccc(Cl)c3)n2)c1 [Example 135, 4-(9-(3-chlorophenyl)-6-(3-(m-tolyl)-1H-pyrazol-1-yl)-9H-purin-2-yl)morpholine]	51.18
Cc1cccc(-c2ccn(-c3nc(N4CCOCC4)nc4c3ncn4-c3cccc(OC4CC4)c3)n2)c1 [Example 138, 4-(9-(3-cyclopropoxyphenyl)-6-(3-(m-tolyl)-1H-pyrazol-1-yl)-9H-purin-2-yl)morpholine]	64.23
Cc1cccc(/C=N/Nc2nc(N3CCOCC3)nc3c2ncn3-c2ncccc2C)c1 [Example 142, (E)-4-(6-(2-(3-methylbenzylidene)hydrazinyl)-9-(3-methylpyridin-2-yl)-9H-purin-2-yl)morpholine]	68.43
Cc1cccc(/C=N/Nc2nc(N3CCOCC3)nc3c2nc(C)n3-c2cc(C)n(C)n2)c1 [Example 153, (E)-4-(9-(1,5-dimethyl-1H-pyrazol-3-yl)-8-methyl-6-(2-(3-methylbenzylidene)hydrazinyl)-9H-purin-2-yl)morpholine]	63.58
Cc1cccc(/C=N/Nc2nc(N3CCOCC3)nc3c2nc(C)n3CC(=O)c2ccccc2)c1 [Example 156, (E)-2-(8-methyl-6-(2-(3-methylbenzylidene)hydrazinyl)-2-morpholino-9H-purin-9-yl)-1-phenylethan-1-one]	65.90
Cc1cccc(/C=N/Nc2nc(N3CCOCC3)nc3c2nc(C)n3CC(=O)c2cccnc2)c1 [Example 158, (E)-2-(8-methyl-6-(2-(3-methylbenzylidene)hydrazinyl)-2-morpholino-9H-purin-9-yl)-1-(pyridin-3-yl)ethan-1-one]	63.93
Cc1cccc(/C=N/Nc2nc(N3CCOCC3)nc3c2nc(C)n3CC(=O)c2ccncc2)c1 [Example 159, (E)-2-(8-methyl-6-(2-(3-methylbenzylidene)hydrazinyl)-2-morpholino-9H-purin-9-yl)-1-(pyridin-4-yl)ethan-1-one]	65.33
COc1cccc(-n2c(C)nc3c(N/N=C/c4cccc(C)c4)nc(N4CCOCC4)nc32)c1 [Example 160, (E)-4-(9-(3-methoxyphenyl)-8-methyl-6-(2-(3-methylbenzylidene)hydrazinyl)-9H-purin-2-yl)morpholine]	77.75
COc1ccc(-n2c(C)nc3c(N/N=C/c4cccc(C)c4)nc(N4CCOCC4)nc32)cc1 [Example 161, (E)-4-(9-(4-methoxyphenyl)-8-methyl-6-(2-(3-methylbenzylidene)hydrazinyl)-9H-purin-2-yl)morpholine]	79.72
Cc1cccc(/C=N/Nc2nc(N3CCOCC3)nc3c2nc(C)n3-c2cccc(F)c2)c1 [Example 162, (E)-4-(9-(3-fluorophenyl)-8-methyl-6-(2-(3-methylbenzylidene)hydrazinyl)-9H-purin-2-yl)morpholine]	78.79
Cc1cccc(/C=N/Nc2nc(N3CCOCC3)nc3c2nc(C)n3-c2cccc(Cl)c2)c1 [Example 163, (E)-4-(9-(3-chlorophenyl)-8-methyl-6-(2-(3-methylbenzylidene)hydrazinyl)-9H-purin-2-yl)morpholine]	54.29
